# Several values for one entry are separate records, joined by “and”; a condition that tells them apart may be missing. Equal values may be shown once.
# How the values were obtained:
# [1] = tested on: adult patients with Gaucher disease Type 3; assay: Clinical study in GD-3 patients: trail making test (TMT); assay type: in vivo, human; conditions: 15 mg/day + imiglucerase
# Excerpt: The trail making test (TMT) was used to evaluate cognitive function in the patients. The TMT is one of the most widely used neuropsychological tests and is included in most test batteries. The TMT is a diagnostic tool to assess general intelligence and cognitive dysfunctions (Tombaugh et al. [2004]; Cavaco et al. [2013]). In part A of the TMT, subjects are asked to connect a cluster of numbers in ascending order. This task is a combination of visual search and general visual and motor processing speed. Part B presents a sequence which alternates between numbers and letters. Subjects must actively switch between both categories when connecting them in ascending, but alternating order.
# TMT-A evaluates mainly perceptual and psychomotor speed. TMT-B assesses more specifically mental flexibility and shifting abilities. TMT B minus TMT A score is used to remove the variance attributable to the graphomotor and visual scanning components of TMT A. This derived score reflects the unique task requirements of TMT B.
# [2] = tested on: chitotriosidase (CHITO), GM3, GPNMB, ceramide; assay: Clinical study in GD-3 patients: exploratory biomarkers; assay type: in vivo, human
# Description: Four exploratory biomarkers were quantified in plasma, serum and/or CSF of GD3 patients at week 4 and week 26: chitotriosidase (CHITO; an enzyme known to be elevated in GD patients) was measured in CSF and serum; GM3 (a glycosphingolipid marker known to be elevated in GD patients) was measured in CSF and plasma; and glycoprotein nonmetastatic melanoma protein B (GPNMB; reportedly a biomarker of neuropathic GD3) was measured in CSF. The results are shown in the table below as percent change from baseline at week 4 and week 26 for each parameter:
# In addition, exploratory biomarkers were quantified in CSF of GD3 patients: ceramide (the precursor of GL-1), chitotriosidase (CHITO), GM3, and GPNMB.
# [3] = 15 mg/day + imiglucerase, Week 4, individual Patients 1-5
# [4] = 15 mg/day + imiglucerase, Week 26, individual Patients 1-5
smiles,measurement,setting,value
"CC(C)(NC(=O)O[C@@H]1CN2CCC1CC2)c1csc(-c2ccc(F)cc2)n1 [Compound 2, (S)-quinuclidin-3-yl 2-(2-(4-fluorophenyl)thiazol-4-yl)propan-2-ylcarbamate]",Mean difference in time taken to complete Trail B minus Trail A,"[1]; 52 weeks, SD=54.3",66.2 s
same,"Patients with a TMT-A reduction, excluding Patient 5",[1]; Week 52,four of five
same,"Patients with a TMT-B reduction, excluding Patient 5",[1]; Week 52,five of five
same,Patients with a reduction in the (TMT B−TMT A) time,[1]; Week 52,5 of 6
same,"Patients with an improvement in Trail B minus Trial A, excluding Patient 5",[1]; Week 52,four of five
same,Patients with reduction in time taken to complete Trail A,[1]; Week 52,Four of six
same,Patients with reduction in time taken to complete Trail B,[1]; Week 52,six of six
same,GM3 in CSF,"[2]; 15 mg/day + imiglucerase, 4, 26 and 52 weeks, the four of six patients measurable at baseline",undetectable
same,"CHITO in CSF, percent change from baseline",[2]; [3],−5% and +11% and +9% and −6% (2×)
same,"CHITO in Serum, percent change from baseline",[2]; [3],−11% and +8% and −7% and −12% and −1%
same,"GM3 in CSF, percent change from baseline",[2]; [3],−51% and −59% (2×) and 0%
same,"GM3 in Plasma, percent change from baseline",[2]; [3],−70% and −63% and −65% and −62% and −47%
same,"GPNMB in CSF, percent change from baseline",[2]; [3],−63% and +30% and +9% and −6% and −2%
same,"CHITO in CSF, percent change from baseline",[2]; [4],−10% and −11% and +20% and −1% and +68%
same,"CHITO in Serum, percent change from baseline",[2]; [4],−43% and −55% and −1% and +98% and −11%
same,"GM3 in CSF, percent change from baseline",[2]; [4],−51% and 0% (2×) and −59% (2×)
same,"GM3 in Plasma, percent change from baseline",[2]; [4],−86% and −69% and −74% and −72% and +10%
same,"GPNMB in CSF, percent change from baseline",[2]; [4],−14% and 0% and +45% and +10% and −8%
same,"CSF concentrations of ceramide, CHITO or GPNMB","[2]; 15 mg/day + imiglucerase, after 52 weeks",no significant changes
